How the values were obtained:
[1] = tested on: Jurkat NFκB-luciferase cells; assay: Jurkat NFκB-Luciferase Assay; format: cell-based; conditions: Homo sapiens; Jurkat NFκB-luciferase cells activated with anti-CD3 antibody (OKT3), 2.5 hrs at 37° C.; geometric mean; read-out: DGK NFKb Luciferase EC50
In short: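 Jurkat NFκB-luciferase reporter cells stimulated on plate-bound anti-CD3 (5 ug/ml coating) with compound, 2.5 hrs at 37° C then 30 min at 25° C; luminescence read with One-Glo Ex. Normalized to DMSO (basal) and 1 micromolar compound (maximum) controls; EC50 from four-parameter fit, geometric mean across experiments.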

[2] = molecular target: human DGKα (Homo sapiens (Human), UniProt P23743); assay: DGKα Biochemical Activity Assay (ADP-Glo); conditions: recombinant DGKα 1 nM, 100 μM ATP, 18:1 DAG/POPS/octylglucoside micelles, 1 hour at 25° C.; geometric mean; read-out: HTBS DGKa 1X ATP KM IC50
Chain of human DGKα (P23743 whole entry): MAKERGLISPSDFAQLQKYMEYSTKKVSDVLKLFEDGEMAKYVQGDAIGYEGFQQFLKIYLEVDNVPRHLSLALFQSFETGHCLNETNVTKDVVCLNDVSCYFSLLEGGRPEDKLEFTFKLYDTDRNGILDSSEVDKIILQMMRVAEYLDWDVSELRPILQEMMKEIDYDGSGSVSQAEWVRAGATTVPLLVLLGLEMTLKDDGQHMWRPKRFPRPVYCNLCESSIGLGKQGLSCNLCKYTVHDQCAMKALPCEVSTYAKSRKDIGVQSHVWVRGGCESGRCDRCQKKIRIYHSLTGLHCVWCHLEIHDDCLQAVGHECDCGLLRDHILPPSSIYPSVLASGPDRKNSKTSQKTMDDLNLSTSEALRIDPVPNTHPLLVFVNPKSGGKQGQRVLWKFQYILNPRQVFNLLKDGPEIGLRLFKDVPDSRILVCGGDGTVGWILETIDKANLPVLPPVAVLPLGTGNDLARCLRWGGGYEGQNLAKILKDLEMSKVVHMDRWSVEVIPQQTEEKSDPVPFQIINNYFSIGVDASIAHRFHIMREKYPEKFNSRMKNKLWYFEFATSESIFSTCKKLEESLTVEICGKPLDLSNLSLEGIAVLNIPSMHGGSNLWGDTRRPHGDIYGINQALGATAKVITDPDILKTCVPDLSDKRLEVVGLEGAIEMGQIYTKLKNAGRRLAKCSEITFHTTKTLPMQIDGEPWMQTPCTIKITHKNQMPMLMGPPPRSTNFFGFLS
In short: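 Recombinant DGKα (1 nM final) was preincubated with compound for 15 min, then reacted for 1 h at 25 °C with 100 μM ATP and octylglucoside micelles of 0.85 mM 18:1 DAG and 6.75 mM POPS in pH 7.2 MOPS with 5 mM MgCl2. ADP formed was read by ADP-Glo luminescence. IC50 came from four-parameter fits normalized to DMSO and 50 μM CU3, and values were geometric means.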

Compound | EC50 [1] [nM] | IC50 [2] [nM]
Fc1cncc2c1c(N1CCCc3c(C#CC4(C(F)(F)F)CC4)cccc31)nc1nncn12 [Example 87, 10-fluoro-8-[5-[2-[1-(trifluoromethyl)cyclopropyl]ethynyl]-3,4-dihydro-2H-quinolin-1-yl]-2,4,5,7,12-pentazatricyclo[7.4.0.02,6]trideca-1(13),3,5,7,9,11-hexaene] | 0.839 | 8.6
CCN(c1cc(F)cc(C#CC(C)(C)C(F)(F)F)c1)c1nc2nncn2c2cncc(F)c12 [Example 88, N-ethyl-10-fluoro-N-[3-fluoro-5-(4,4,4-trifluoro-3,3-dimethyl-but-1-ynyl)phenyl]-2,4,5,7,12-pentazatricyclo[7.4.0.02,6]trideca-1(13),3,5,7,9,11-hexaen-8-amine] | 1.22 | 41.1
CCN(c1cc(F)cc(C#CC2(C)CC2)c1)c1nc2nncn2c2cncc(F)c12 [Example 89, N-ethyl-10-fluoro-N-[3-fluoro-5-[2-(1-methylcyclopropyl)ethynyl]phenyl]-2,4,5,7,12-pentazatricyclo[7.4.0.02,6]trideca-1(13),3,5,7,9,11-hexaen-8-amine] | 0.655 | 6.18
CCN(c1cc(F)cc(C#CC2(C(F)(F)F)CC2)c1)c1nc2nncn2c2cncc(F)c12 [Example 90, N-ethyl-10-fluoro-N-[3-fluoro-5-[2-[1-(trifluoromethyl)cyclopropyl]ethynyl]phenyl]-2,4,5,7,12-pentazatricyclo[7.4.0.02,6]trideca-1(13),3,5,7,9,11-hexaen-8-amine] | 0.715 | 12
CN(c1cc(F)cc(C#CC2(C)CC2)c1)c1nc2nncn2c2cncc(F)c12 [Example 91, 10-fluoro-N-[3-fluoro-5-[2-(1-methylcyclopropyl)ethynyl]phenyl]-N-methyl-2,4,5,7,12-pentazatricyclo[7.4.0.02,6]trideca-1(13),3,5,7,9,11-hexaen-8-amine] | 1.25 | 6.25
CN(c1cc(F)cc(C#CC(C)(C)O)c1)c1nc2nncn2c2cncc(F)c12 [Example 92, 4-[3-fluoro-5-[(10-fluoro-2,4,5,7,12-pentazatricyclo[7.4.0.02,6]trideca-1(13),3,5,7,9,11-hexaen-8-yl)-methyl-amino]phenyl]-2-methyl-but-3-yn-2-ol] | 32.1 | 17.4
CN(c1cc(F)cc(C#CC2(C(F)(F)F)CC2)c1)c1nc2nncn2c2cncc(F)c12 [Example 93, 10-fluoro-N-[3-fluoro-5-[2-[1-(trifluoromethyl)cyclopropyl]ethynyl]phenyl]-N-methyl-2,4,5,7,12-pentazatricyclo[7.4.0.02,6]trideca-1(13),3,5,7,9,11-hexaen-8-amine] | 0.763 | 7.17
Cc1nnc2nc(N3CCOCc4c(C#CC5(C(C)(F)F)CC5)cccc43)c3c(F)cncc3n12 [Example 94, 6-((1-(1,1-difluoroethyl)cyclopropyl)ethynyl)-1-(6-fluoro-1-methylpyrido[4,3-e][1,2,4]triazolo[4,3-a]pyrimidin-5-yl)-1,2,3,5-tetrahydrobenzo[e][1,4]oxazepine] | 3.39 | 25.1
Cc1nnc2nc(N3CCOCc4c(C#Cc5cnn(C)c5)cccc43)c3c(F)cncc3n12 [Example 95, 1-(6-fluoro-1-methylpyrido[4,3-e][1,2,4]triazolo[4,3-a]pyrimidin-5-yl)-6-((1-methyl-1H-pyrazol-4-yl)ethynyl)-1,2,3,5-tetrahydrobenzo[e][1,4]oxazepane] | 31.2 | 6.95
Cc1nnc2nc(N3CCOCc4c(C#CC(C)(C)C#N)cccc43)c3c(F)cncc3n12 [Example 96, 4-(1-(6-fluoro-1-methylpyrido[4,3-e][1,2,4]triazolo[4,3-a]pyrimidin-5-yl)-1,2,3,5-tetrahydrobenzo[e][1,4]oxazepin-6-yl)-2,2-dimethylbut-3-ynenitrile] | 6.63 | 3.84
Cc1nnc2nc(N3CCCc4c(C#CC(C)(C)C#N)cccc43)c3c(F)cncc3n12 [Example 97, 4-(1-(6-fluoro-1-methylpyrido[4,3-e][1,2,4]triazolo[4,3-a]pyrimidin-5-yl)-1,2,3,4-tetrahydroquinolin-5-yl)-2,2-dimethylbut-3-ynenitrile] | 4.1 | 4.65
Cc1nnc2nc(N3CCCc4c(C#CC(C)(C)O)cccc43)c3cc(F)cnc3n12 [Example 98, 4-(1-(3-fluoro-9-methylpyrido[3,2-e][1,2,4]triazolo[4,3-a]pyrimidin-5-yl)-1,2,3,4-tetrahydroquinolin-5-yl)-2-methylbut-3-yn-2-ol] | 26.2 | 49
Cc1nnc2nc(N(CC(F)F)c3cc(F)cc(C#CC(C)(C)O)c3)c3cc(F)cnc3n12 [Example 99, 4-(3-((2,2-difluoroethyl)(3-fluoro-9-methylpyrido[3,2-e][1,2,4]triazolo[4,3-a]pyrimidin-5-yl)amino)-5-fluorophenyl)-2-methylbut-3-yn-2-ol] | 53.1 | 38.9
Cc1nnc2nc(N3CCCc4c(C#CC5(C(F)F)CC5)cccc43)c3cc(F)cnc3n12 [Example 100, 5-(5-((1-(difluoromethyl)cyclopropyl)ethynyl)-3,4-dihydroquinolin-1(2H)-yl)-3-fluoro-9-methylpyrido[3,2-e][1,2,4]triazolo[4,3-a]pyrimidine] | 2.26 | 7.93
Cc1nnc2nc(N3CCCc4c(C#CC5(C(F)(F)F)CC5)cccc43)c3cc(F)cnc3n12 [Example 101, 3-fluoro-9-methyl-5-(5-((1-(trifluoromethyl)cyclopropyl)ethynyl)-3,4-dihydroquinolin-1(2H)-yl)pyrido[3,2-e][1,2,4]triazolo[4,3-a]pyrimidine] | 1.01 | 6.21
Cc1nnc2nc(N3CCCc4c(C#CC(C)(C)C(F)(F)F)cccc43)c3cc(F)cnc3n12 [Example 102, 3-fluoro-9-methyl-5-(5-(4,4,4-trifluoro-3,3-dimethylbut-1-yn-1-yl)-3,4-dihydroquinolin-1(2H)-yl)pyrido[3,2-e][1,2,4]triazolo[4,3-a]pyrimidine] | 1.8 | 21.4

The remaining lines, values ahead:

EC50 [1] [nM] | IC50 [2] [nM] | Compound
1.64 | 9.34 | Cc1nnc2nc(N(CC(F)F)c3cc(F)cc(C#CC(C)(C)C(F)(F)F)c3)c3cc(F)cnc3n12 [Example 103, N-(2,2-difluoroethyl)-3-fluoro-N-(3-fluoro-5-(4,4,4-trifluoro-3,3-dimethylbut-1-yn-1-yl)phenyl)-9-methylpyrido[3,2-e][1,2,4]triazolo[4,3-a]pyrimidin-5-amine]
3.53 | 14.5 | Cc1nnc2nc(N(CC(F)F)c3cc(F)cc(C#CC4(C)CC4)c3)c3cc(F)cnc3n12 [Example 104, N-(2,2-difluoroethyl)-3-fluoro-N-(3-fluoro-5-((1-methylcyclopropyl)ethynyl)phenyl)-9-methylpyrido[3,2-e][1,2,4]triazolo[4,3-a]pyrimidin-5-amine]
5.57 | 13.3 | Cc1nnc2nc(N(CC(F)F)c3cc(F)cc(C#CC4(C(F)F)CC4)c3)c3cc(F)cnc3n12 [Example 105, N-(2,2-difluoroethyl)-N-(3-((1-(difluoromethyl)cyclopropyl)ethynyl)-5-fluorophenyl)-3-fluoro-9-methylpyrido[3,2-e][1,2,4]triazolo[4,3-a]pyrimidin-5-amine]
2.25 | 6.42 | Cc1nnc2nc(N(CC(F)F)c3cc(F)cc(C#CC4(C(F)(F)F)CC4)c3)c3cc(F)cnc3n12 [Example 106, N-(2,2-difluoroethyl)-3-fluoro-N-(3-fluoro-5-((1-(trifluoromethyl)cyclopropyl)ethynyl)phenyl)-9-methylpyrido[3,2-e][1,2,4]triazolo[4,3-a]pyrimidin-5-amine]
1.85 | 11.9 | Cc1nnc2nc(N3CCCc4c(C#CC5(C)CC5)cccc43)c3cc(F)cnc3n12 [Example 107, 3-fluoro-9-methyl-5-(5-((1-methylcyclopropyl)ethynyl)-3,4-dihydroquinolin-1(2H)-yl)pyrido[3,2-e][1,2,4]triazolo[4,3-a]pyrimidine]
3.08 | 3.43 | Fc1cnc2c(c1)c(N1CCCc3c(C#CC4(C(F)F)CC4)cccc31)nc1nncn12 [Example 108, 5-(5-((1-(difluoromethyl)cyclopropyl)ethynyl)-3,4-dihydroquinolin-1(2H)-yl)-3-fluoropyrido[3,2-e][1,2,4]triazolo[4,3-a]pyrimidine]
1.75 | 5.62 | CC1(C#Cc2cccc3c2CCCN3c2nc3nncn3c3ncc(F)cc23)CC1 [Example 109, 3-fluoro-5-(5-((1-methylcyclopropyl)ethynyl)-3,4-dihydroquinolin-1(2H)-yl)pyrido[3,2-e][1,2,4]triazolo[4,3-a]pyrimidine]
27 | 75.4 | COc1ccc2c(N(C)c3cccc(C#CC(C)(C)O)c3)nc3nncn3c2n1 [Example 114, 4-(3-((2-methoxypyrido[3,2-e][1,2,4]triazolo[4,3-a]pyrimidin-5-yl)(methyl)amino)phenyl)-2-methylbut-3-yn-2-ol]
1.74 | 448 | COc1ccc2c(N(C)c3cccc(-c4ccc(S(F)(F)(F)(F)F)cc4)c3)nc3nncn3c2n1 [Example 115, 2-methoxy-N-methyl-N-(4′-(pentafluoro-16-sulfaneyl)-[1,1′-biphenyl]-3-yl)pyrido[3,2-e][1,2,4]triazolo[4,3-a]pyrimidin-5-amine]

Reference: US11926628B2 (Gilead Sciences, Inc., priority 2021, dated 2024)
